Measurements: US6340678B1, “4,4-difluoro-2,3,4,5-tetrahydro-1H-1-benzoazepine derivatives and drug compositions containing them” (Yamanouchi Pharmaceutical Co., Ltd., priority 1997, dated 2002)
Positions of bridges follow the written chain, without caps; N, C: chain ends. Non-standard residues stand in square brackets, D forms with d. Residues, ends and D or L forms follow the SMILES beside them. Orn = NCCC[C@H](N)C(=O)O; Mpa = O=C(O)CCS

Target: T1, oxytocin receptor (Rattus norvegicus, UniProt P70536)
T1 construct: uterus was excised, and a membrane sample was prepared therefrom; from tissue; host or cells: rat uterus (membrane preparation after diethylstilbestrol dipropionate treatment)
T1 sequence (P70536 1-388): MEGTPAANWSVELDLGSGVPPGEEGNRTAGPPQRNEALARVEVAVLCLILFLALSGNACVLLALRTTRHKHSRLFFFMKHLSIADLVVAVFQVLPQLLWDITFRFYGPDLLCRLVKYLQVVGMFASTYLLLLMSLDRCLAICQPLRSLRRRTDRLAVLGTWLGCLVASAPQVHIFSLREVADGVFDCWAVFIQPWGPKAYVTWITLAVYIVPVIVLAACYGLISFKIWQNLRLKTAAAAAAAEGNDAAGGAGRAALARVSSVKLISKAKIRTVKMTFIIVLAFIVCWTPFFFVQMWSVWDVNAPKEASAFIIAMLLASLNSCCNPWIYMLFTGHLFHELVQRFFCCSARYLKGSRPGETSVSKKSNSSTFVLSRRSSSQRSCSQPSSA
Test: Oxytocin receptor binding assay ([3H]-oxytocin, rat uterine membrane sample)
Procedure: (Oxytocin Receptor Binding Assay)
Preparation of Uterine membrane was prepared by a method of Soroff, et al. (J. Biol. Chem., 249: 1376, 1974) while a binding assay was performed by a method of Pettibone, et al. (Endocrinology, 125: 217, 1989). Diethylstilbestrol dipropionate (0.3 mg/kg) was administered to a rat intraperitoneally, and after 18 to 24 hours, uterus was excised, and a membrane sample was prepared therefrom. [^3H]-Oxytocin (0.5 nM; specific activity=30 to 60 Ci/mmol), 50 μg of the membrane sample and a test drug (10^−8 to 10^−5 M) were incubated at room temperature for 60 minutes in 250 μl (total volume) of 50 mM Tris hydrochloride buffer (pH 7.4) containing 10 mM of magnesium chloride and 0.1% of bovine serum albumin (BSA). […] The glass filter was taken out, well dried and mixed with a cocktail for liquid scintillation, the amount of [^3H]-oxytocin bound to the sample was determined by a liquid scintillation counter, and the inhibition rate was calculated from the following equation: […]
wherein [L] is a concentration of the radioactive ligand; and Kd is a dissociation constant calculated from the scattered plots.
Then, a negative logarithmic value of Ki calculated hereinabove was taken as pKi. […]

Q: How did the Ki turn out when CCOc1ccc(C[C@H]2NC(=O)CCSSC[C@@H](C(=O)N3CCC[C@H]3C(=O)N[C@@H](CCCN)C(=O)NCC(N)=O)NC(=O)[C@H](CC(N)=O)NC(=O)[C@H]([C@@H](C)O)NC(=O)[C@H]([C@@H](C)CC)NC2=O)cc1 [atosiban] ([Mpa][dY](Et)ITNCP[Orn]G-NH2; disulfide 1-6) was run?
A: 11.7 nM
